In experiment [1] the target is human GLP-1 receptor (hGLP-1R) (Homo sapiens, UniProt P43220). In words: cAMP production (HTRF) in CHO cells expressing hGLP-1R. It is filed as cell-based. Further details: expressed in transfected cells. The following applies: for % Relative Potency Ratio: % GLP-1R activity relative to GLP-1 / % GlucR activity relative to glucagon. The method, boiled down: (§1)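 Potency values represent EC50 from 4-parameter logistic curves of HTRF % Delta F signal. Receptor-expressing CHO cells (hGCGR 2×10^5 cells/mL, hGLP-1R 1×10^5 cells/mL) were exposed for 30 min at room temperature before two-step cAMP detection.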
Chain of human GLP-1 receptor (hGLP-1R) (P43220 24-463): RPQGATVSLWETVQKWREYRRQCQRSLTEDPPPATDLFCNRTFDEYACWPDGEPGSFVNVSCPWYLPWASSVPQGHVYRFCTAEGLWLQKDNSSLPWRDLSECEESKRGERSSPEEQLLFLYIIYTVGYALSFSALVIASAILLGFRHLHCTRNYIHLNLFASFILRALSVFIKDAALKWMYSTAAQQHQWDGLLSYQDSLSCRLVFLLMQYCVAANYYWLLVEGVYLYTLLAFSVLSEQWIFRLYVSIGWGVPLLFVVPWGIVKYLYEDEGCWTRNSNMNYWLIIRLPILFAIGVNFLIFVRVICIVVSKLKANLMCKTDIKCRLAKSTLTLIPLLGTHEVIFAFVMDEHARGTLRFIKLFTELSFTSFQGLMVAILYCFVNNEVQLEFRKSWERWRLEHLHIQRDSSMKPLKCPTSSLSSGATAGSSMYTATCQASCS
A general note: Cyclic AMP is a second messenger, typically raised through Gs and lowered through Gi signalling.

In experiment [2] the target is human glucagon receptor (hGCGR) (Homo sapiens, UniProt P47871). In words: cAMP production (HTRF) in CHO cells expressing hGCGR. Further details: expressed in transfected cells. The following applies: geometric mean. The class given is cell-based. The method, boiled down:
as §1

The mark [3] stands for this setting: Table 6, peptides modified at position 17, cAMP in CHO hGLP-1R cells, geometric mean, read-out: hGLP-1R EC50.
Setting [4] is: Table 6, peptides modified at position 17, cAMP in CHO hGCGR cells, read-out: hGluc-R EC50.

The structures appear in SMILES notation. Like-named read-outs stand apart in the source and are kept apart here. Starred links: 1 amine or outer side, 2 acyl side, 3 side chain; linkers in the order of their positions; H or OH if unused. Non-standard residues stand in square brackets, D forms with d. Residues, ends and D or L forms follow the SMILES beside them. Groups on a side chain read outwards from the residue. *: point of attachment. C20 diacid = O=C(O)CCCCCCCCCCCCCCCCCCC(=O)*; C18 diacid = O=C(O)CCCCCCCCCCCCCCCCC(=O)*; γGlu = O=C(O)[C@H](CCC(=O)[*:2])N[*:1]; αMeF = C[C@](N)(Cc1ccccc1)C(=O)O; AEEA = NCCOCCOCC(=O)O; Aib = CC(C)(N)C(=O)O

Chain of human glucagon receptor (hGCGR) (P47871 26-477): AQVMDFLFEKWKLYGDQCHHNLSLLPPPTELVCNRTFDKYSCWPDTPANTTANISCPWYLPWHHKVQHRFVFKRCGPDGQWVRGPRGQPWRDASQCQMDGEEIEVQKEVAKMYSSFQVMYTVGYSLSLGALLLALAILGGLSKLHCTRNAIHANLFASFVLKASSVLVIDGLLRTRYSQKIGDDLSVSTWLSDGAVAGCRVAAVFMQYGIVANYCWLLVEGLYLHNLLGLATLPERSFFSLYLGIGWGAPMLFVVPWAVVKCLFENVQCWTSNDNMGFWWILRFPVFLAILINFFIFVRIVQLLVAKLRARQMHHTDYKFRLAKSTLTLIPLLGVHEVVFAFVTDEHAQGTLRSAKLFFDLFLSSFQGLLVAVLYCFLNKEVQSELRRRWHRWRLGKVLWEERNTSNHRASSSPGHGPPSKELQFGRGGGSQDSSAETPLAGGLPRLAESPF

Regarding `CC(C)C[C@H](NC(=O)[C@H](CC(C)C)NC(=O)[C@H](Cc1c[nH]c2ccccc12)NC(=O)[C@H](CCC(N)=O)NC(=O)[C@@H](NC(=O)[C@H](Cc1ccccc1)NC(=O)[C@H](CC(=O)O)NC(=O)[C@H](CCCNC(=N)N)NC(=O)[C@H](C)NC(=O)[C@H](CCCNC(=N)N)NC(=O)[C@H](CCCCNC(=O)COCCOCCNC(=O)COCCOCCNC(=O)CC[C@H](NC(=O)CCCCCCCCCCCCCCCCC(=O)O)C(=O)O)NC(=O)[C@@H](NC(=O)[C@H](CC(=O)O)NC(=O)[C@H](CC(C)C)NC(=O)[C@](C)(Cc1ccccc1)NC(=O)[C@H](CCCCN)NC(=O)[C@H](CO)NC(=O)[C@@H](NC(=O)[C@H](CC(=O)O)NC(=O)[C@H](CO)NC(=O)[C@@H](NC(=O)[C@H](Cc1ccccc1)NC(=O)[C@@H](NC(=O)CNC(=O)[C@H](CCC(N)=O)NC(=O)C(C)(C)NC(=O)[C@@H](N)Cc1c[nH]cn1)[C@@H](C)O)[C@@H](C)O)C(C)C)[C@@H](C)O)C(C)C)C(=O)N[C@@H](CCC(=O)O)C(=O)N[C@@H](C)C(=O)NCC(=O)O` [Peptide 462] (H-H[Aib]QGTFTSDVSK[αMeF]LDTK([AEEA-AEEA-γGlu-C18 diacid])RARDFVQWLLEAG-OH; N-terminus assumed), the EC50 – broadly, the concentration that produces a half-maximal response – was found to be 39.5 pM in experiment [1] (setting [3]) and 89.2 pM in experiment [2] (setting [4]). Moreover, in experiment [1] (Table 6), the “% Relative Potency Ratio” value turned out to be 4.5.
On to `CC[C@H](C)[C@H](NC(=O)[C@H](Cc1c[nH]c2ccccc12)NC(=O)[C@H](CCC(=O)O)NC(=O)[C@@H](NC(=O)[C@H](Cc1ccccc1)NC(=O)[C@H](CC(=O)O)NC(=O)[C@H](CCCCNC(=O)COCCOCCNC(=O)COCCOCCNC(=O)CC[C@H](NC(=O)CCCCCCCCCCCCCCCCCCC(=O)O)C(=O)O)NC(=O)[C@H](C)NC(=O)[C@H](C)NC(=O)[C@H](CCCNC(=N)N)NC(=O)[C@H](CO)NC(=O)[C@H](CC(=O)O)NC(=O)[C@H](CC(C)C)NC(=O)[C@](C)(Cc1ccccc1)NC(=O)[C@H](CCCCN)NC(=O)[C@H](CO)NC(=O)[C@@H](NC(=O)[C@H](CC(=O)O)NC(=O)[C@H](CO)NC(=O)[C@@H](NC(=O)[C@](C)(Cc1ccccc1)NC(=O)[C@H](CO)NC(=O)CNC(=O)[C@H](Cc1c[nH]cn1)NC(=O)C(C)(C)NC(=O)[C@@H](N)Cc1c[nH]cn1)[C@@H](C)O)C(C)C)C(C)C)C(=O)N[C@@H](C)C(=O)N[C@@H](CC(N)=O)C(=O)N[C@H](C(N)=O)[C@@H](C)O` [Peptide 212] (H-H[Aib]HGS[αMeF]TSDVSK[αMeF]LDSRAAK([AEEA-AEEA-γGlu-C20 diacid])DFVEWIANT-NH2), for which the EC50 in experiment [1] (Table 7, peptides modified at position 20, cAMP in CHO hGLP-1R cells, geometric mean, read-out: hGLP-1R EC50) worked out at 532 pM; in experiment [2] (Table 7, peptides modified at position 20, cAMP in CHO hGCGR cells, read-out: hGluc-R EC50), 97.5 pM. The “% Relative Potency Ratio” value in experiment [1] (Table 7) was found to be 0.4.
As for `CC(C)C[C@H](NC(=O)[C@H](Cc1c[nH]c2ccccc12)NC(=O)[C@H](CCCNC(=N)N)NC(=O)[C@@H](NC(=O)[C@H](Cc1ccccc1)NC(=O)[C@H](CC(=O)O)NC(=O)[C@H](CCCNC(=N)N)NC(=O)[C@H](C)NC(=O)[C@H](CCCNC(=N)N)NC(=O)[C@H](CCCCNC(=O)COCCOCCNC(=O)COCCOCCNC(=O)CC[C@H](NC(=O)CCCCCCCCCCCCCCCCCCC(=O)O)C(=O)O)NC(=O)[C@@H](NC(=O)[C@H](CC(=O)O)NC(=O)[C@H](CC(C)C)NC(=O)[C@](C)(Cc1ccccc1)NC(=O)[C@H](CCCCN)NC(=O)[C@H](CO)NC(=O)[C@@H](NC(=O)[C@H](CC(=O)O)NC(=O)[C@H](CO)NC(=O)[C@@H](NC(=O)[C@H](Cc1ccccc1)NC(=O)[C@@H](NC(=O)CNC(=O)[C@H](CCC(N)=O)NC(=O)C(C)(C)NC(=O)[C@@H](N)Cc1c[nH]cn1)[C@@H](C)O)[C@@H](C)O)C(C)C)[C@@H](C)O)C(C)C)C(=O)N[C@@H](CC(C)C)C(=O)NC(C)(C)C(=O)N[C@H](C(=O)N[C@@H](CCC(=O)O)C(=O)O)[C@@H](C)O` [Peptide 492] (H-H[Aib]QGTFTSDVSK[αMeF]LDTK([AEEA-AEEA-γGlu-C20 diacid])RARDFVRWLL[Aib]TE-OH; N-terminus assumed), the results for the EC50 in experiment [1] (setting [3]) and in experiment [2] (setting [4]) were 212 pM and 374 pM, respectively. Also, in experiment [1] (Table 6), the “% Relative Potency Ratio” value turned out to be 3.5.
In the case of `CC[C@H](C)[C@H](NC(=O)[C@H](Cc1c[nH]c2ccccc12)NC(=O)[C@H](CCCCNC(=O)COCCOCCNC(=O)COCCOCCNC(=O)CC[C@H](NC(=O)CCCCCCCCCCCCCCCCC(=O)O)C(=O)O)NC(=O)[C@@H](NC(=O)[C@](C)(Cc1ccccc1)NC(=O)[C@H](CC(=O)O)NC(=O)[C@H](CCC(N)=O)NC(=O)[C@H](C)NC(=O)[C@H](C)NC(=O)[C@H](CCC(N)=O)NC(=O)[C@H](CO)NC(=O)[C@H](CC(=O)O)NC(=O)[C@H](CC(C)C)NC(=O)[C@](C)(Cc1ccccc1)NC(=O)[C@H](CCCCN)NC(=O)[C@H](CO)NC(=O)[C@@H](NC(=O)[C@H](CC(=O)O)NC(=O)[C@H](CO)NC(=O)[C@@H](NC(=O)[C@](C)(Cc1ccccc1)NC(=O)[C@H](CO)NC(=O)CNC(=O)[C@H](Cc1c[nH]cn1)NC(=O)C(C)(C)NC(=O)[C@@H](N)Cc1c[nH]cn1)[C@@H](C)O)C(C)C)C(C)C)C(=O)N[C@@H](C)C(=O)N[C@@H](CC(N)=O)C(=O)N[C@H](C(N)=O)[C@@H](C)O` [Peptide 370] (H-H[Aib]HGS[αMeF]TSDVSK[αMeF]LDSQAAQD[αMeF]VK([AEEA-AEEA-γGlu-C18 diacid])WIANT-NH2; N-terminus assumed), the “% Relative Potency Ratio” value in experiment [1] is on record as 1.1. The EC50 stood at 323 pM in experiment [1] (cAMP, CHO cells, 0.1% BSA, geometric mean, read-out: hGLP-1R EC50) and 182 pM in experiment [2] (cAMP, CHO cells, 0.1% BSA, read-out: hGluc-R EC50).
Regarding `CC(C)C[C@H](NC(=O)[C@H](Cc1c[nH]c2ccccc12)NC(=O)[C@H](CCCNC(=N)N)NC(=O)[C@@H](NC(=O)[C@H](Cc1ccccc1)NC(=O)[C@H](CC(=O)O)NC(=O)[C@H](CCC(N)=O)NC(=O)[C@H](C)NC(=O)[C@H](CCCNC(=N)N)NC(=O)[C@H](CCCCNC(=O)COCCOCCNC(=O)COCCOCCNC(=O)CC[C@H](NC(=O)CCCCCCCCCCCCCCCCC(=O)O)C(=O)O)NC(=O)[C@H](CO)NC(=O)[C@H](CC(=O)O)NC(=O)[C@H](CC(C)C)NC(=O)[C@](C)(Cc1ccccc1)NC(=O)[C@H](CCCCN)NC(=O)[C@H](CO)NC(=O)[C@@H](NC(=O)[C@H](CC(=O)O)NC(=O)[C@H](CO)NC(=O)[C@@H](NC(=O)[C@H](Cc1ccccc1)NC(=O)[C@@H](NC(=O)CNC(=O)[C@H](CCC(N)=O)NC(=O)C(C)(C)NC(=O)[C@@H](N)Cc1c[nH]cn1)[C@@H](C)O)[C@@H](C)O)C(C)C)C(C)C)C(=O)N[C@@H](CCC(=O)O)C(=O)N[C@@H](C)C(=O)NC(C)(C)C(=O)NCC(=O)O` [Peptide 147] (H-H[Aib]QGTFTSDVSK[αMeF]LDSK([AEEA-AEEA-γGlu-C18 diacid])RAQDFVRWLEA[Aib]G-OH; N-terminus assumed), the concentration giving a half-maximal response (EC50) in experiment [1] (setting [3]) is 15.3 pM; in experiment [2] (setting [4]), 43.5 pM. Besides, the “% Relative Potency Ratio” value in experiment [1] (Table 6) was 5.6.
For the compound `CC[C@H](C)[C@H](NC(=O)[C@H](Cc1c[nH]c2ccccc12)NC(=O)[C@H](CCCCNC(=O)CC[C@H](NC(=O)CCCCCCCCCCCCCCCCCCC(=O)O)C(=O)O)NC(=O)[C@@H](NC(=O)[C@H](Cc1ccccc1)NC(=O)[C@H](CC(=O)O)NC(=O)[C@H](CCC(N)=O)NC(=O)[C@H](C)NC(=O)[C@H](C)NC(=O)[C@H](CCC(N)=O)NC(=O)[C@H](CO)NC(=O)[C@H](CC(=O)O)NC(=O)[C@H](CC(C)C)NC(=O)[C@](C)(Cc1ccccc1)NC(=O)[C@H](CCCCN)NC(=O)[C@H](CO)NC(=O)[C@@H](NC(=O)[C@H](CC(=O)O)NC(=O)[C@H](CO)NC(=O)[C@@H](NC(=O)[C@](C)(Cc1ccccc1)NC(=O)[C@H](CO)NC(=O)CNC(=O)[C@H](Cc1c[nH]cn1)NC(=O)C(C)(C)NC(=O)[C@@H](N)Cc1c[nH]cn1)[C@@H](C)O)C(C)C)C(C)C)C(=O)N[C@@H](C)C(=O)N[C@@H](CC(N)=O)C(=O)N[C@H](C(N)=O)[C@@H](C)O` [Peptide 354], the “% Relative Potency Ratio” value in experiment [1] stood at 1.6. For the same compound, the EC50 in experiment [1] (hGLP-1R EC50 (pM)) stood at 1110 pM; in experiment [2] (hGluc-R EC50 (pM), cAMP, CHO cells, 0.1% BSA), 902 pM.
For `CC(C)C[C@H](NC(=O)[C@H](Cc1c[nH]c2ccccc12)NC(=O)[C@H](CCCNC(=N)N)NC(=O)[C@@H](NC(=O)[C@H](Cc1ccccc1)NC(=O)[C@H](CC(=O)O)NC(=O)[C@H](CCCNC(=N)N)NC(=O)[C@H](C)NC(=O)[C@H](CCCNC(=N)N)NC(=O)[C@H](CCCCNC(=O)COCCOCCNC(=O)COCCOCCNC(=O)CC[C@H](NC(=O)CCCCCCCCCCCCCCCCC(=O)O)C(=O)O)NC(=O)[C@@H](NC(=O)[C@H](CC(=O)O)NC(=O)[C@H](CC(C)C)NC(=O)[C@](C)(Cc1ccccc1)NC(=O)[C@H](CCCCN)NC(=O)[C@H](CO)NC(=O)[C@@H](NC(=O)[C@H](CC(=O)O)NC(=O)[C@H](CO)NC(=O)[C@@H](NC(=O)[C@H](Cc1ccccc1)NC(=O)[C@@H](NC(=O)CNC(=O)[C@H](CCC(N)=O)NC(=O)C(C)(C)NC(=O)[C@@H](N)Cc1c[nH]cn1)[C@@H](C)O)[C@@H](C)O)C(C)C)[C@@H](C)O)C(C)C)C(=O)N[C@@H](CC(C)C)C(=O)NC(C)(C)C(=O)N[C@@H](CCC(=O)O)C(=O)O` [Peptide 197] (H-H[Aib]QGTFTSDVSK[αMeF]LDTK([AEEA-AEEA-γGlu-C18 diacid])RARDFVRWLL[Aib]E-OH; N-terminus assumed), the EC50 in experiment [1] (setting [3]) was 64 pM; in experiment [2] (setting [4]), 112 pM. Further, the “% Relative Potency Ratio” value in experiment [1] (Table 6) is reported as 3.5.

Source of the values: patent US20250353891A1 (MEDIMMUNE LIMITED, priority 2022, published 2025).
